Experimental data as given in patent US6355799B1, “Substituted benzene compounds, process for their preparation, and herbicidal and defoliant compositions containing them” (ISK Americas Incorporated, priority 1997, dated 2002).

Experiments:
Assay type in all cases: in vivo
[1] = tested on: large crabgrass (Digitaria sanguinalis, DIGSA); assay: Pre-emerge test, greenhouse herbicide activity screening; settings: rated 14 days after application, 0 = no damage, 100 = complete death
In short: (§1)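 Compounds in acetone were track-sprayed at 15-1000 g ai/ha (187 l/ha) on sandy loam pots: pre-emerge one day after seeding, post-emerge at 2-3 leaf stage with 0.25% v/v non-ionic surfactant. Phytotoxicity was rated 14 days later on a 0 (no damage) to 100 (complete death) scale.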

[2] = tested on: ivyleaf morningglory (Ipomoea hederacea, IPOHE); assay: as above; settings: rated 14 days after application, 0 = no damage, 100 = complete death
In short: as §1

[3] = tested on: johnsongrass (Sorghum halepense, SORHA); assay: as above; settings: rated 14 days after application, 0 = no damage, 100 = complete death
In short: as §1

[4] = tested on: barnyardgrass (Echinochloa crus-galli, ECHCG); assay: as above; settings: rated 14 days after application, 0 = no damage, 100 = complete death
In short: as §1

[5] = tested on: sicklepod (Cassia obtusifolia, CASOB); assay: as above; settings: rated 14 days after application, 0 = no damage, 100 = complete death
In short: as §1

[6] = tested on: green foxtail (Setaria viridis, SETVI); assay: as above; settings: rated 14 days after application, 0 = no damage, 100 = complete death
In short: as §1

[7] = tested on: velvetleaf (Abutilon theophrasti, ABUTH); assay: as above; settings: rated 14 days after application, 0 = no damage, 100 = complete death
In short: as §1

[8] = tested on: lambsquarters (Chenopodium album, CHEAL); assay: as above; settings: rated 14 days after application, 0 = no damage, 100 = complete death
In short: as §1

[9] = tested on: common ragweed (Ambrosia artemisizfolia L., AMBEL); assay: as above; settings: rated 14 days after application, 0 = no damage, 100 = complete death
In short: as §1

[10] = tested on: redroot pigweed (Amaranthus retroflexus, AMARE); assay: as above; settings: rated 14 days after application, 0 = no damage, 100 = complete death
In short: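 Sandy loam pots; pre-emerge: sown 1 d pre-spray, surface-watered after, then bottom-watered. Post-emerge: sown 8–21 d before, 2–3 leaf stage, + 0.25% v/v NIS, bottom-watered. Acetone, 187 l/ha track spray, 15–1000 g ai/ha. 0–100 injury score, day 14.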

[11] = tested on: upland rice (Oryza sp., var. Tebonnet, RICE); assay: Pre-emerge test, crop safety; settings: rated 14 days after application, 0 = no damage, 100 = complete death
In short: (§2)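 Visual ratings on a 0-100 scale (0 no damage, 100 all plants dead) were taken at 14 days after treatment. Rates of 15-1000 g ai/ha in acetone, 187 l/ha, were sprayed onto soil one day after planting (pre-emerge) or onto 2-3 leaf plants with 0.25% v/v surfactant (post-emerge).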

[12] = tested on: field corn (Zea mays L., var. Dekalb 535, CORN); assay: Pre-emerge test, crop safety; settings: rated 14 days after application, 0 = no damage, 100 = complete death
In short: as §2

[13] = tested on: large crabgrass (Digitaria sanguinalis, DIGSA); assay: Post-emerge test, greenhouse herbicide activity screening; settings: post-emerge, 14 days after application, rating scale 0-100
In short: (§3)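 Each test used a mechanized track sprayer delivering 187 l/ha of acetone solution at 15–1000 g ai/ha. Post-emerge foliage at 2–3 leaves was treated with added 0.25% v/v non-ionic surfactant and bottom-watered only. Injury was assessed on day 14, where 100 means total kill.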

[14] = tested on: ivyleaf morningglory (Ipomoea hederacea, IPOHE); assay: as above; settings: post-emerge, 14 days after application, rating scale 0-100
In short: as §3

[15] = tested on: johnsongrass (Sorghum halepense, SORHA); assay: as above; settings: post-emerge, 14 days after application, rating scale 0-100
In short: as §3

[16] = tested on: redroot pigweed (Amaranthus retroflexus, AMARE); assay: as above; settings: post-emerge, 14 days after application, rating scale 0-100
In short: as §3

[17] = tested on: barnyardgrass (Echinochloa crus-galli, ECHCG); assay: as above; settings: post-emerge, 14 days after application, rating scale 0-100
In short: as §3

[18] = tested on: sicklepod (Cassia obtusifolia, CASOB); assay: as above; settings: post-emerge, 14 days after application, rating scale 0-100
In short: as §3

[19] = tested on: green foxtail (Setaria viridis, SETVI); assay: as above; settings: post-emerge, 14 days after application, rating scale 0-100
In short: as §3

[20] = tested on: velvetleaf (Abutilon theophrasti, ABUTH); assay: as above; settings: post-emerge, 14 days after application, rating scale 0-100
In short: as §3

[21] = tested on: lambsquarters (Chenopodium album, CHEAL); assay: as above; settings: post-emerge, 14 days after application, rating scale 0-100
In short: as §3

[22] = tested on: common ragweed (Ambrosia artemisizfolia L., AMBEL); assay: as above; settings: post-emerge, 14 days after application, rating scale 0-100
In short: as §3

[23] = tested on: upland rice (Oryza sp., var. Tebonnet, RICE); assay: Post-emerge test, crop safety; settings: post-emerge, 14 days after application, rating scale 0-100
In short: as §1

[24] = tested on: field corn (Zea mays L., var. Dekalb 535, CORN); assay: Post-emerge test, crop safety; settings: post-emerge, 14 days after application, rating scale 0-100
In short: as §1

COc1c(Cl)cc(F)c(-n2c(=O)cc(C(F)(F)F)n(C)c2=O)c1N(C(=O)c1ccc([N+](=O)[O-])cc1)C(=O)c1ccc([N+](=O)[O-])cc1 [2-69]
Pre-emerge Herbicidal Activity, phytotoxicity rating (0-100), DIGSA ([1]; 63 g ai/ha): 20
Pre-emerge Herbicidal Activity, phytotoxicity rating (0-100), DIGSA ([1]; 250 g ai/ha): 90
Pre-emerge Herbicidal Activity, phytotoxicity rating (0-100), IPOHE ([2]; 63 g ai/ha): 0
Pre-emerge Herbicidal Activity, phytotoxicity rating (0-100), IPOHE ([2]; 250 g ai/ha): 40
Pre-emerge Herbicidal Activity, phytotoxicity rating (0-100), SORHA ([3]; 63 g ai/ha): 0
Pre-emerge Herbicidal Activity, phytotoxicity rating (0-100), SORHA ([3]; 250 g ai/ha): 30
Pre-emerge Herbicidal Activity, phytotoxicity rating (0-100), ECHCG ([4]; 63 g ai/ha): 0
Pre-emerge Herbicidal Activity, phytotoxicity rating (0-100), ECHCG ([4]; 250 g ai/ha): 10
Pre-emerge Herbicidal Activity, phytotoxicity rating (0-100), CASOB ([5]; 63 g ai/ha): 0
Pre-emerge Herbicidal Activity, phytotoxicity rating (0-100), CASOB ([5]; 250 g ai/ha): 80
Pre-emerge Herbicidal Activity, phytotoxicity rating (0-100), SETVI ([6]; 63 g ai/ha): 70
Pre-emerge Herbicidal Activity, phytotoxicity rating (0-100), SETVI ([6]; 250 g ai/ha): 95
Pre-emerge Herbicidal Activity, phytotoxicity rating (0-100), ABUTH ([7]; 63 g ai/ha): 100
Pre-emerge Herbicidal Activity, phytotoxicity rating (0-100), ABUTH ([7]; 250 g ai/ha): 100
Pre-emerge Herbicidal Activity, phytotoxicity rating (0-100), CHEAL ([8]; 63 g ai/ha): 100
Pre-emerge Herbicidal Activity, phytotoxicity rating (0-100), CHEAL ([8]; 250 g ai/ha): 100
Pre-emerge Herbicidal Activity, phytotoxicity rating (0-100), AMBEL ([9]; 63 g ai/ha): 50
Pre-emerge Herbicidal Activity, phytotoxicity rating (0-100), AMBEL ([9]; 250 g ai/ha): 60
Pre-emerge Herbicidal Activity, phytotoxicity rating (0-100), AMARE ([10]; 63 g ai/ha): 90
Pre-emerge Herbicidal Activity, phytotoxicity rating (0-100), AMARE ([10]; 250 g ai/ha): 100
Pre-emerge phytotoxicity rating (0-100), crop damage, RICE ([11]; 63 g ai/ha): 20
Pre-emerge phytotoxicity rating (0-100), crop damage, RICE ([11]; 250 g ai/ha): 30
Pre-emerge phytotoxicity rating (0-100), crop damage, CORN ([12]; 63 g ai/ha): 0
Pre-emerge phytotoxicity rating (0-100), crop damage, CORN ([12]; 250 g ai/ha): 10
phytotoxicity rating DIGSA ([13]; 63 g ai/ha): 0
phytotoxicity rating DIGSA ([13]; 250 g ai/ha): 0
phytotoxicity rating IPOHE ([14]; 63 g ai/ha): 50
phytotoxicity rating IPOHE ([14]; 250 g ai/ha): 40
phytotoxicity rating SORHA ([15]; 63 g ai/ha): 0
phytotoxicity rating SORHA ([15]; 250 g ai/ha): 0
phytotoxicity rating AMARE ([16]; 63 g ai/ha): 40
phytotoxicity rating AMARE ([16]; 250 g ai/ha): 50
phytotoxicity rating ECHCG ([17]; 63 g ai/ha): 0
phytotoxicity rating ECHCG ([17]; 250 g ai/ha): 0
phytotoxicity rating CASOB ([18]; 63 g ai/ha): 10
phytotoxicity rating CASOB ([18]; 250 g ai/ha): 30
phytotoxicity rating SETVI ([19]; 63 g ai/ha): 0
phytotoxicity rating SETVI ([19]; 250 g ai/ha): 0
phytotoxicity rating ABUTH ([20]; 63 g ai/ha): 100
phytotoxicity rating ABUTH ([20]; 250 g ai/ha): 100
phytotoxicity rating CHEAL ([21]; 63 g ai/ha): 50
phytotoxicity rating CHEAL ([21]; 250 g ai/ha): 60
phytotoxicity rating AMBEL ([22]; 63 g ai/ha): 40
phytotoxicity rating AMBEL ([22]; 250 g ai/ha): 30
phytotoxicity rating RICE ([23]; 63 g ai/ha): 0
phytotoxicity rating RICE ([23]; 250 g ai/ha): 0
phytotoxicity rating CORN ([24]; 63 g ai/ha): 0
phytotoxicity rating CORN ([24]; 250 g ai/ha): 0
